In patent publication US20030032662A1, “Micronized leflunomide” (priority 2000, published 2003):

Assay: Particle size after micronizing in a micronizer
Type: physicochemical
Conditions: pure dry leflunomide micronized in a micronizer (Example 1)
Text: Pure dry leflunomide was micronized in a micronizer. The result was micronized leflunomide of a particle size of less than 5 micrometer.

Q: Which particle size does the source give for `Cc1oncc1C(=O)Nc1ccc(C(F)(F)F)cc1` [micronized leflunomide, N-(4′-trifluoromethylphenyl)-5-methylisoxazole-4-carboxamide] here?
A: Its particle size is “less than 5 micrometer”.
